From patent publication US7745641B2, “Nitrogen-containing heterocyclic compound” (Kyowa Hakko Kirin Co., Ltd., priority 2005, dated 2010)

Columns and labels:
leukemia-transplant mice = conditions: drugs that act on Flt-3; cited from earlier work
[1] = several evaluation models; drugs reported to act on FGFR; cited from earlier work
human FGFR3 = molecular target: T1, human FGFR3 (Homo sapiens, UniProt P22607); assay: Fibroblast growth factor receptor 3 (FGFR3) inhibitory activity, time-resolved fluoroimmunoassay; format: biochemical; conditions: 10 μmol/L test compound
T1 construct: the intracellular domain (448-759 amino acids) of human FGFR3; made in house; host or cells: insect cells (baculovirus)
Procedure: In order to determine FGFR3 inhibitory activity, the following method was employed. FGFR3 was prepared by allowing baculovirus that expresses a protein in which glutathione S-transferase (GST) was fused to the N-terminal of the intracellular domain (448-759 amino acids) of human FGFR3 to infect insect cells. Biotinylated polyglutamic acid-tyrosine peptide (Nihon Schering K.K., Catalogue No. 61GT0BAA) used as a substrate was immobilized on a 96-well plate coated with NeutroAvidin (Pierce, Catalogue No. 31000) and was then blocked with 0.25% gelatin to yield a plate for the determination of kinase reaction A solution containing, at final concentrations, 8 μg/L GST-fused FGFR3 protein, 20 mmol/L Tris-Cl (pH 7.5), 0.04% 2-mercaptoethanol, 0.04 mmol/L Na3VO4, 20 mmol/L MgCl2, 5 mmol/L MnCl2, 10 mmol/L ATP, 0.1% bovine serum albumin (BSA; Sigma Corporation, Catalogue No. A4503), 0.1% dimethyl sulfoxide (DMSO), and 10 μmol/L test compound was prepared. Subsequently, 50 μL of the solution was placed in each of the wells of the plate for the determination of kinase reaction, followed by enzymatic reaction at 24° C. for 60 minutes. The plate was washed with TBS-T [10 mM Tris-Cl (pH 7.5), 150 mmol/L NaCl, and 0.05% Tween 20 (Bio-Rad Laboratories Inc., Catalogue No. 170-6531)] four times, and allowed to react with europium-labeled anti-phosphotyrosine antibody (PerkinElmer Inc. Catalogue No. AD0160) at room temperature for 60 minutes. The plate was further washed with TBS-T four times. Subsequently, DELFIA. Enhancement Solution (PerkinElmer Inc. Catalogue No. 1244-105) was added to the plate, and time-resolved fluoroimmunoassay was performed (excitation wavelength: 340 nm, measuring wavelength: 615 nm). The relative activity (%) of a well in which the test compound was added was calculated using the value of a well containing the enzyme and 0.1% DMSO being 100% and the value of a well not containing the enzyme being 0%. The FGFR3 inhibitory activity (%) of the test compound was determined by subtracting the relative activity (%) from 100.

Aurora = Aurora inhibitory activity using Western blotting method (phosphorylation of histone H3 Ser10); format: cell-based, human; conditions: 10 μmol/L, 30 minutes, HCT116 cells accumulated in M phase with Nocodazole
Source text: It is known that Aurora phosphorylates Ser10 of histone H3 in the G2/M phase during the cell cycle [Molecular and Cellular Biology, Vol. 22, p. 874 (2002)]. Consequently, the inhibition of phosphorylation of histone H3 Ser10 in cells was detected by a Western blotting method using human colon cancer cell line HCT116 cells accumulated in the M phase. McCoy's 5A culture medium (GIBCO, Catalogue No. 16600-082) containing 10% bovine fetus serum (GIBCO, Catalogue No. 10099-141) was used for the cultivation of the cells. The HCT116 cells were inoculated and then treated with Nocodazole (Sigma Corporation, Catalogue No. M-1404) so that the cell cycle was accumulated to the M phase. A test compound (final concentration: 10 μmol/L) was added thereto, and the cells were incubated at 37° C. for 30 minutes. The cells were then recovered and washed with a phosphate buffered saline (PBS) once. The cells were suspended in a cell-solubilizing solution (50 mmol/L 2-[4-(2-hydroxyethyl)-1-piperazinyl]ethanesulfonic acid (HEPES) (pH 7.4), 150 mmol/L NaCl, 1 mmol/L ethylenediamine-N,N,N′,N′-tetraacetic acid disodium salt dihydrate (EDTA), 2.5 mmol/L ethylene glycol bis(2-aminoethylether)-N,N,N′,N′-tetraacetic acid (EGTA), 0.1% Tween-20 (Bio-Rad Laboratories Inc., Catalogue No. 170-6531), 10% β-glycerophosphate, 1 mmol/L NaF, 0.1 mmol/L Na3VO4, 1 mmol/L Pefabloc SC (Roche Diagnostics K.K., Catalogue No. 1 429 868), and Complete EDTA-free (Roche Diagnostics K.K., Catalogue No. 1 873 580)}, and the suspension was frozen and thawed. Subsequently, the supernatant obtained by centrifugal separation was used as a cell extraction solution. SDS-PAGE was performed using a 12.5% polyacrylamide gel under the condition that the amount of protein per sample was 30 μg in accordance with the method used by Laemmli et al. The protein was transferred onto a PVDF membrane (Millipore Corporation, Catalogue No. IPVH304F0) by a semi-dry method. The membrane was allowed to react with anti-phosphorylated histone H3 Ser10 antibody (Upstate Inc., Catalogue No. 06-570) used as a primary antibody, and an HRP-labeled anti-rabbit IgG antibody (Amersham biosciences, Catalogue No. NA934V) used as a secondary antibody. Subsequently, […] was detected using a SuperSignal West Pico chemiluminescence substrate (Pierce, Catalogue No. 34077).

HCT116 cells = assay: Evaluation of Aurora inhibitory activity by analysis of nuclear morphology (enlarged lobed nuclei); format: cell-based, human; conditions: concentration in the range of 0.1 to 1 μmol/L, 17 hours contact; optimal concentration different in each compound
Procedure: 281 (2003)]. Consequently, enlarged lobed nuclei-inducibility of test compounds for HCT116 cells was evaluated. McCoy's 5A culture medium (GIBCO, Catalogue No. 16600-082) containing 10% bovine fetus serum (GIBCO, Catalogue No. 10099-141) was used for the cultivation of the cells. HCT116 cells were inoculated and, 24 hours later, each test compound was added thereto.

Flt-3 = molecular target: T2, Flt-3 (Homo sapiens, UniProt P36888); assay: Flt-3 inhibitory activity, time-resolved fluoroimmunoassay; format: biochemical; conditions: 10 μmol/L test compound
T2 construct: His tag; purchased Upstate Inc. 14-500
T2 sequence (P36888 564-993 limits assumed): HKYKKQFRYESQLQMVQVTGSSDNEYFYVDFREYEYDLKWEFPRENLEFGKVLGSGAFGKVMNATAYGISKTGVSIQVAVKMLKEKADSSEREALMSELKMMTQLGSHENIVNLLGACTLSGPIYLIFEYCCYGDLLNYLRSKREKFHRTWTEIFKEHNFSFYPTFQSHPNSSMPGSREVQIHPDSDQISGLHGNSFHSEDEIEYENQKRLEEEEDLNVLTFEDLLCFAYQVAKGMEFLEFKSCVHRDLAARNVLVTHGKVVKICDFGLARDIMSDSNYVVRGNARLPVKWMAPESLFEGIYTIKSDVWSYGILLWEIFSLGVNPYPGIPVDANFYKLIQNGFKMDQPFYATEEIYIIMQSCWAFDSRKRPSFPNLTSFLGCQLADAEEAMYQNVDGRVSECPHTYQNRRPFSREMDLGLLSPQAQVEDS
Procedure: Flt-3 inhibitory activity was determined by a method described below.
Biotinylated polyglutamic acid-tyrosine peptide (Nihon Schering K.K., Catalogue No. 61GT0BAA) used as a substrate was immobilized on a 96-well plate (FIA-PLATE BLACK 96 well FALT-BOTTOM HIGH BINDING, Greiner Bio-one Co., Ltd., Catalogue No. 655077) coated with NeutroAvidin (Pierce, Catalogue No. 31000) and was then blocked with 0.25% gelatin to yield a plate for the determination of kinase reaction. A solution containing, at final concentrations, 8 μg/L His-tagged protein-fused Flt-3 (Upstate Inc., Catalogue No. 14-500), 20 mmol/L Tris-Cl (pH 7.5), 0.04% 2-mercaptoethanol, 0.04 mmol/L Na3VO4, 20 mmol/L MgCl2, 5 mmol/L MnCl2, 10 μmol/L ATP, 0.1% BSA, 0.1% DMSO, and […] test compound was prepared. Subsequently, 50 μL of the solution was placed in each of the wells of the plate for the determination of kinase reaction, followed by enzymatic reaction at 24° C. for 60 minutes. The plate was washed with TBS-T [10 mmol/L Tris-Cl (pH 7.5), 150 mmol/L NaCl, and 0.05% Tween 20 (Bio-Rad Laboratories Inc., Catalogue No. 170-6531)] four times, and allowed to react with europium-labeled anti-phosphotyrosine antibody (PerkinElmer Inc. Catalogue No. AD0160) at room temperature for 60 minutes. The plate was further washed with TBS-T four times. Subsequently, time-resolved fluoroimmunoassay was performed (excitation wavelength: 340 nm, measuring wavelength: 615 nm). The relative activity (%) of a well to which the enzyme and the test compound were added was calculated using the value of a well to which the test compound was not added being 100% and the value of a well to which the enzyme and the test compound were not added being 0%. The Flt-3 inhibitory activity (%) of the test compound was determined by subtracting the relative activity (%) from 100.

T1 sequence (P22607 448-759): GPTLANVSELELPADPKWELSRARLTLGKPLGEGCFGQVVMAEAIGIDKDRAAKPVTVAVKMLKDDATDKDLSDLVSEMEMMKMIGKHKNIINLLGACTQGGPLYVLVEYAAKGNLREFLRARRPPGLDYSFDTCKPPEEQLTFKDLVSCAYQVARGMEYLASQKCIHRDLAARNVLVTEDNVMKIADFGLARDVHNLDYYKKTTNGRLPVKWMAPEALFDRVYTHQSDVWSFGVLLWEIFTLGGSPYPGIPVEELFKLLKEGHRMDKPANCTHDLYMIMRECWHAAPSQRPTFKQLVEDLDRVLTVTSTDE

| Molecule | antitumor activity (leukemia-transplant mice) | antitumor activity [1] | melting point [°C] | further results |
| --- | --- | --- | --- | --- |
| C[C@]12O[C@H](C[C@]1(O)CO)n1c3ccccc3c3c4c(c5c6ccccc6n2c5c31)CNC4=O [CEP-701] | exhibit an antitumor activity |  |  |  |
| CN1CCN(c2ccc3nc(-c4c(N)c5c(F)cccc5[nH]c4=O)[nH]c3c2)CC1 [CHIR-258] | exhibit an antitumor activity | exhibit an antitumor activity |  |  |
| COc1cc2c(N3CCN(C(=O)Nc4ccc(OC(C)C)cc4)CC3)ncnc2cc1OCCCN1CCCCC1 [CT53518] | exhibit an antitumor activity |  |  |  |
| O=C1NCc2c(Cl)ccc(-c3cc4cc(C(=O)N5CCN(c6ccccn6)CC5)ccc4[nH]3)c21 [Compound 107, 4-Chloro-7-{1H-5-[4-(pyridin-2-yl)piperazin-1-ylcarbonyl]indol-2-yl}isoindolinone] |  |  | > 295 |  |
| O=C1NCc2c(Cl)ccc(-c3cc4cc(C(=O)N5CCN(CCOCCO)CC5)ccc4[nH]3)c21 [Compound 109, 4-Chloro-7-{1H-5-[4-(2-(2-hydroxyethoxy)ethyl)piperazin-1-ylcarbonyl]indol-2-yl}isoindolinone] |  |  | 255 |  |
| CN(C)CCN1CCN(C(=O)c2ccc3[nH]c(-c4ccc(Cl)c5c4C(=O)NC5)cc3c2)CC1 [Compound 112, 4-Chloro-7-{1H-5-[4-(2-dimethylaminoethyl)piperazin-1-ylcarbonyl]indol-2-yl}isoindolinone] |  |  | 271 to 272 |  |
| COc1cc(-c2cc3cc(CN(C)C)ccc3[nH]2)c2c(c1OS(C)(=O)=O)CNC2=O [Compound 362, 4-Methanesulfonyloxy-5-methoxy-7-[1H-5-(dimethylaminomethyl)indol-2-yl]isoindolinone] |  |  | 232 to 234 | inhibition at 10 µM (human FGFR3): ≥ 50%; suppression of the phosphorylation of histone H3 Ser10 in HCT116 cells (Aurora): almost completely suppressed; ability of inducing enlarged lobed nuclei for HCT116 cells (HCT116 cells): show ability of inducing enlarged lobed nuclei; inhibition at 10 µM (Flt-3): ≥ 50% |
| COc1cc(-c2cc3cc(CNC4CCCCC4)ccc3[nH]2)c2c(c1OS(C)(=O)=O)CNC2=O [Compound 365, 4-Methanesulfonyloxy-5-methoxy-7-[1H-5-(cyclohexylaminomethyl)indol-2-yl]isoindolinone] |  |  | 196 to 199 |  |
| COc1cc(-c2cc3cc(CN4CCCC4)ccc3[nH]2)c2c(c1OS(C)(=O)=O)CNC2=O [Compound 366, 4-Methanesulfonyloxy-5-methoxy-7-[1H-5-(pyrrolidin-1-ylmethyl)indol-2-yl]isoindolinone] |  |  | 187 to 189 | inhibition at 10 µM (human FGFR3): ≥ 50%; suppression of the phosphorylation of histone H3 Ser10 in HCT116 cells (Aurora): almost completely suppressed; ability of inducing enlarged lobed nuclei for HCT116 cells (HCT116 cells): show ability of inducing enlarged lobed nuclei; inhibition at 10 µM (Flt-3): ≥ 50% |
| COCCNCc1ccc2[nH]c(-c3cc(OC)c(OS(C)(=O)=O)c4c3C(=O)NC4)cc2c1 [Compound 374, 4-Methanesulfonyloxy-5-methoxy-7-[1H-5-(2-methoxyethylaminomethyl)indol-2-yl]isoindolinone] |  |  | 188 to 190 | inhibition at 10 µM (human FGFR3): ≥ 50%; suppression of the phosphorylation of histone H3 Ser10 in HCT116 cells (Aurora): almost completely suppressed; ability of inducing enlarged lobed nuclei for HCT116 cells (HCT116 cells): show ability of inducing enlarged lobed nuclei; inhibition at 10 µM (Flt-3): ≥ 50% |
| CCN(CC)CCCCNc1ncc2cc(-c3cc(OC)cc(OC)c3)c(NC(=O)NC(C)(C)C)nc2n1 [PD173074] |  | exhibit an antitumor activity |  |  |
| CO[C@@H]1[C@H](N(C)C(=O)c2ccccc2)C[C@H]2O[C@]1(C)n1c3ccccc3c3c4c(c5c6ccccc6n2c5c31)C(=O)NC4 [PKC412] | exhibit an antitumor activity | exhibit an antitumor activity |  |  |
| Cc1c[nH]c(/C=C2\C(=O)Nc3ccccc32)c1CCC(=O)O [SU5402] |  | exhibit an antitumor activity |  |  |
| CCN(CC)CCNC(=O)c1c(C)[nH]c(/C=C2\C(=O)Nc3ccc(F)cc32)c1C [SU11248] | exhibit an antitumor activity |  |  |  |
| BIBF1000 |  | exhibit an antitumor activity |  |  |
